{
  "source": "patent US9849083B2",
  "about": "“Sublingual administration of statins” (LondonPharma Ltd., priority 2011, dated 2017)",
  "key": {"[1]": {"conditions": "human, in vivo; for Tmax (median): male"}, "clinical": {"experiment": "clinical", "conditions": "male, human, in vivo; for Tmax: Tmax (median)"}, "[2]": {"experiment": "Safety and tolerability in phase 1 trial of sublingual statin sprays", "type": "in vivo, human", "conditions": "all mild; simvastatin AE after 40 mg; fluvastatin with both doses", "protocol": "The secondary objectives of this study were to: • establish the safety, tolerability, local tolerance and taste acceptance of the study medications\nSafety was evaluated by adverse event (AE) monitoring, evaluation of any medically significant changes, based on physical examination findings, vital signs, and electrocardiograms (ECGs) assessments, clinical laboratory testing, local tolerance and taste acceptance.\nSafety data was summarised by descriptive methods; continuous variables by summary statistics and categorical data by absolute and relative frequencies."}, "[3]": {"experiment": "Phase 1 pharmacokinetic study of sublingual statin sprays in healthy male subjects", "conditions": "for Tmax / AUC(0-inf) / AUC(0-t) / Cmax: male, human, plasma; for Tmax: Tmax (median); for Tmax / Tmax (median): sublingual spray, healthy male subjects, simvastatin acid measured after simvastatin spray"}, "physchem": {"experiment": "physchem", "conditions": "aqueous with cosolvent or surfactant or cyclodextrin"}, "[4]": {"experiment": "Chemical stability / compatibility of the statin in formulations", "type": "physicochemical"}, "[5]": {"experiment": "Solubility of the statin in formulation carriers", "conditions": "aqueous-based formulation, water"}},
  "note": "Counter-ions that a name gives are not always drawn. Like-named read-outs stand apart in the source and are kept apart here.",
  "data": [
    {"compound": "CCC(C)(C)C(=O)O[C@H]1C[C@@H](C)C=C2C=C[C@H](C)[C@H](CC[C@@H](O)C[C@@H](O)CC(=O)O)[C@H]21", "note": "[Simvastatin Acid, simvastatin acid]", "values": [
      {"measurement": "CL/F (mean)", "setting": "[1]; 20 mg", "value": 609.03, "unit": "L/h"},
      {"measurement": "CL/F (mean)", "setting": "[1]; 40 mg", "value": 921.93, "unit": "L/h"},
      {"measurement": "AUC(0-inf)", "setting": "clinical; 20 mg", "value": 37.7, "unit": "ng·h/mL"},
      {"measurement": "AUC(0-t)", "setting": "clinical; 20 mg", "value": 21.3, "unit": "ng·h/mL"},
      {"measurement": "Cmax", "setting": "clinical; 20 mg", "value": 6.1, "unit": "ng/mL"},
      {"measurement": "Vd/F", "setting": "clinical; 20 mg", "value": 3960, "unit": "L"},
      {"measurement": "half-life", "setting": "clinical; 20 mg", "value": 5.73, "unit": "h"},
      {"measurement": "Tmax", "setting": "clinical; 20 mg", "value": 2.19, "unit": "h"},
      {"measurement": "AUC(0-inf)", "setting": "clinical; 40 mg", "value": 47.6, "unit": "ng·h/mL"},
      {"measurement": "AUC(0-t)", "setting": "clinical; 40 mg", "value": 32.5, "unit": "ng·h/mL"},
      {"measurement": "Cmax", "setting": "clinical; 40 mg", "value": 9.88, "unit": "ng/mL"},
      {"measurement": "Vd/F", "setting": "clinical; 40 mg", "value": 4760, "unit": "L"},
      {"measurement": "half-life", "setting": "clinical; 40 mg", "value": 3.65, "unit": "h"},
      {"measurement": "Tmax", "setting": "clinical; 40 mg", "value": 3.88, "unit": "h"}
    ]},
    {"compound": "CC(C)n1c(/C=C/C(O)CC(O)CC(=O)O)c(-c2ccc(F)cc2)c2ccccc21", "note": "(centres unmarked) [Fluvastatin, fluvastatin]", "values": [
      {"measurement": "CL/F (mean)", "setting": "[1]; 10 mg", "value": 376.22, "unit": "L/h"},
      {"measurement": "CL/F (mean)", "setting": "[1]; 25 mg", "value": 363.21, "unit": "L/h"},
      {"measurement": "Tmax (median)", "setting": "[1]; 10 mg", "value": 0.56, "unit": "h"},
      {"measurement": "Tmax (median)", "setting": "[1]; 25 mg", "value": 0.57, "unit": "h"},
      {"measurement": "AUC(0-inf)", "setting": "clinical; 10 mg", "value": 37.2, "unit": "ng·h/mL"},
      {"measurement": "AUC(0-t)", "setting": "clinical; 10 mg", "value": 36.3, "unit": "ng·h/mL"},
      {"measurement": "Cmax", "setting": "clinical; 10 mg", "value": 34.2, "unit": "ng/mL"},
      {"measurement": "half-life", "setting": "clinical; 10 mg", "value": 1.18, "unit": "h"},
      {"measurement": "Tmax", "setting": "clinical; 10 mg", "value": "~0.5", "unit": "h"},
      {"measurement": "AUC(0-inf)", "setting": "clinical; 25 mg", "value": 91.7, "unit": "ng·h/mL"},
      {"measurement": "AUC(0-t)", "setting": "clinical; 25 mg", "value": 89.9, "unit": "ng·h/mL"},
      {"measurement": "Cmax", "setting": "clinical; 25 mg", "value": 88, "unit": "ng/mL"},
      {"measurement": "half-life", "setting": "clinical; 25 mg", "value": 1.4, "unit": "h"},
      {"measurement": "Tmax", "setting": "clinical; 25 mg", "value": "~0.5", "unit": "h"},
      {"measurement": "Treatment-emergent AEs reported", "setting": "[2]", "value": "5 related and 2 unrelated"}
    ]},
    {"compound": "CCC(C)(C)C(=O)O[C@H]1C[C@@H](C)C=C2C=C[C@H](C)[C@H](CC[C@@H]3C[C@@H](O)CC(=O)O3)[C@H]21", "note": "[Simvastatin, simvastatin]", "values": [
      {"measurement": "Tmax", "setting": "[3]; 20 mg, 20 mg", "value": 1.88, "unit": "h"},
      {"measurement": "Tmax", "setting": "[3]; 40 mg, 40 mg", "value": 1.88, "unit": "h"},
      {"measurement": "CL/F (mean)", "setting": "[1]; 20 mg", "value": 744.33, "unit": "L/h"},
      {"measurement": "CL/F (mean)", "setting": "[1]; 40 mg", "value": 764.67, "unit": "L/h"},
      {"measurement": "Vd/F", "setting": "clinical; 20 mg", "value": 1980, "unit": "L"},
      {"measurement": "half-life", "setting": "clinical; 20 mg", "value": 1.8, "unit": "h"},
      {"measurement": "Vd/F", "setting": "clinical; 40 mg", "value": 2070, "unit": "L"},
      {"measurement": "half-life", "setting": "clinical; 40 mg", "value": 1.9, "unit": "h"},
      {"measurement": "Treatment-emergent AEs reported", "setting": "[2]", "value": "one"}
    ]},
    {"compound": "CC(C)n1c(/C=C/C(O)CC(O)CC(=O)O)c(-c2ccc(F)cc2)c2ccccc21", "note": "(centres unmarked) [Fluvastatin (sodium salt), fluvastatin sodium]", "values": [
      {"measurement": "solubility", "setting": "physchem", "value": "≥ 25", "unit": "mg/mL"}
    ]},
    {"compound": "CC[C@H](C)C(=O)O[C@H]1C[C@H](O)C=C2C=C[C@H](C)[C@H](CC[C@@H](O)C[C@@H](O)CC(=O)O)[C@H]21", "note": "[pravastatin sodium]", "values": [
      {"measurement": "Reaction with ethanol", "setting": "[4]", "value": "react with ethanol"},
      {"measurement": "solubility", "setting": "[5]", "value": "≥ 150", "unit": "mg/mL"}
    ]},
    {"compound": "CC[C@H](C)C(=O)O[C@H]1C[C@H](O)C=C2C=C[C@H](C)[C@H](CC[C@@H](O)C[C@@H](O)CC(=O)O)[C@H]21", "note": "[Pravastatin, pravastatin]", "values": [
      {"measurement": "AUC(0-inf)", "setting": "[3]; 20 mg", "value": 31.2, "unit": "ng·h/mL"},
      {"measurement": "AUC(0-t)", "setting": "[3]; 20 mg", "value": 30, "unit": "ng·h/mL"},
      {"measurement": "Cmax", "setting": "[3]; 20 mg", "value": 12.3, "unit": "ng/mL"},
      {"measurement": "Tmax", "setting": "[3]; 20 mg, 20 mg", "value": 1.3, "unit": "h"},
      {"measurement": "AUC(0-inf)", "setting": "[3]; 40 mg", "value": 80.6, "unit": "ng·h/mL"},
      {"measurement": "AUC(0-t)", "setting": "[3]; 40 mg", "value": 78.8, "unit": "ng·h/mL"},
      {"measurement": "Cmax", "setting": "[3]; 40 mg", "value": 44.5, "unit": "ng/mL"},
      {"measurement": "Tmax", "setting": "[3]; 40 mg, 40 mg", "value": 1.3, "unit": "h"},
      {"measurement": "Tmax (median)", "setting": "[3]; 20 mg", "value": 1.33, "unit": "h"},
      {"measurement": "Tmax (median)", "setting": "[3]; 40 mg", "value": 1.29, "unit": "h"},
      {"measurement": "CL/F (mean)", "setting": "[1]; 20 mg", "value": 685.48, "unit": "L/h"},
      {"measurement": "CL/F (mean)", "setting": "[1]; 40 mg", "value": 820.32, "unit": "L/h"},
      {"measurement": "half-life", "setting": "clinical; 20 mg", "value": 1.58, "unit": "h"},
      {"measurement": "half-life", "setting": "clinical; 40 mg", "value": 1.32, "unit": "h"},
      {"measurement": "Treatment-emergent AEs reported", "setting": "[2]", "value": "none"}
    ]}
  ]
}
